The data set is described as follows: pKa value (acid dissociation index) of compound (A).

For `Clc1cccnc1` [Example A3, 3-chloropyridine], the pKa worked out at 2.84. As for `CCCCCCCCN(CCCCCCCC)CCCCCCCC` [Example A7, trioctylamine], the figure is 8.35; as for `Cc1cccc(C)n1` [Example A5, 2,6-lutidine], 6.6. In the case of `Cc1cc(C)nc(C)c1` [Example A6, 2,4,6-trimethylpyridine], the pKa stood at 7.48.

Broadly, the pKa is the pH at which an ionisable group is half protonated. A higher pKa goes with a weaker acid or stronger base.

The values above are taken from patent US11845828B2, “Polymerizable composition for optical material, optical material, and producing method thereof” (Mitsui Chemicals, Inc., priority 2016, dated 2023).
